The subject of data set [1] is recombinant soluble human CD73. Put plainly: Radiometric CD73 inhibition assay, recombinant soluble human CD73. The data set is classed as biochemical. The note with it: human vs rat CD73 Ki, Table 5. Here is the method: (§1) The cDNA for the soluble human CD73 (Genbank accession no. NM_002526) was obtained from Prof. Dr. Norbert Sträter (University of Leipzig, Germany) (3). […] Sf9 insect cells were grown in Insect-[…] media (#: BE12-[…], Lonza, Switzerland) with 10 mg/l gentamicin and split at a ratio of 1:3 every fourth day. For transfection, cells were seeded into cell culture flasks (25 cm^2) at 60-70% confluence. 100 μl of cell medium and 1 μl of the vector DNA (1000 ng/μ1) were mixed with 2.5 μl of baculovirus genomic ProEasyTM vector DNA (AB vector, CA, USA) and combined with premixed 100 μl of cell medium and 8 μl of CellfectinTM II Reagent (Thermo Fisher Scientific, MA, USA). […] The cells were incubated for 30 min at rt, and for further 4 days at 27° C. Cells from the transfection procedure were detached from the bottom of the flasks and centrifuged for 5 min at 2000 g. 1.5 ml of the supernatant (viral stock) was added to 75 cm^2 cell culture flasks containing Sf9 cells (60-70% confluence), and the cells were incubated for four days at 27° C. Then 1.5 ml of the supernatant were taken and added to uninfected Sf9 cells in a 75 cm^2 flask. This was repeated five more times, using more cells and larger flasks after the third round of infections (150 cm^2 to which 3.0 ml of supernatant were added). The stock P8 was finally used for infection of the cells. For protein expression, 3 ml of the virus solution were used to infect 150 ml of cell media containing 2×10^6 cells/ml in a 500 ml Erlenmeyer flask, and they were incubated for 4 days at 27° C. with shaking (150 rpm). Then, cell suspensions were transferred to 50 ml falcon tubes and centrifuged at 15 min at 5000 g at 4° C. The supernatants were subjected to ultrafiltration using Amicon® Ultra-15, 10 kDa cut-off (Merck Millipore, MA, USA) at 5000 g for 15-30 min at 4° C. The concentrated protein was purified with HisPurTM Ni^2+-NTA spin columns (#: 88226, Thermo Fisher Scientific, MA, USA). The elution of the columns was performed as recommended in the instruction manual with adjusting the incubation time for protein binding to 1 h at 4° C. with an end-over-end mixer and an additional incubation step of 5 min with the elution buffer before eluting. Eluates were pooled and dialyzed (Membra-Cer, 14 kDa cut-off, 250 mm×44 mm×0.02 mm; Carl Roth, Germany) at 4° C. in 25 mM Tris, pH 7.4, with a volume adjusted to 40 times the volume of the elution fraction. […] The enzyme was aliquoted and stored at -80° C. until use.

In data set [2] the target is T1, recombinant soluble human CD73 (Homo sapiens, UniProt P21589).
T1 construct: 6xHis (C); secretion signal peptide of vector pACGP67B (N); made in house; host or cells: Sf9 insect cells (baculovirus)
T1 sequence (P21589 28-549): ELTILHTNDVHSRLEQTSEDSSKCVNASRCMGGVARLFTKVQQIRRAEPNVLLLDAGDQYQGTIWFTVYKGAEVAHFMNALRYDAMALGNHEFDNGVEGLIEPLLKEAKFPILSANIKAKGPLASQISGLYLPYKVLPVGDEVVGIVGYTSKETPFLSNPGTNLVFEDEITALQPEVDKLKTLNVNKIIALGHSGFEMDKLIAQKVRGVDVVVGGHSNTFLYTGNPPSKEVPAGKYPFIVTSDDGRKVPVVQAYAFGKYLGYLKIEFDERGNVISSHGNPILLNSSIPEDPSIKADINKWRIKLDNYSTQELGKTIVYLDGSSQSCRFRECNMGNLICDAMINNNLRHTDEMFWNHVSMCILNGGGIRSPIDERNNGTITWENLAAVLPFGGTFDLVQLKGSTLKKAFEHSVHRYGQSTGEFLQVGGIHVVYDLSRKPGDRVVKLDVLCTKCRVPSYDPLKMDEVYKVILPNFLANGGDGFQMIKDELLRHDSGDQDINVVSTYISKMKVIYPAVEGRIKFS
The data set is described as above. The note with it: Table 6; for Ki: human soluble CD73, read-out: Ki at hCD73. The data set is classed as biochemical. Here is the method:
as §1

For data set [3], the target named is T2, recombinant soluble rat CD73 (Rattus norvegicus, UniProt P21588).
T2 sequence (P21588 29-551 limits assumed): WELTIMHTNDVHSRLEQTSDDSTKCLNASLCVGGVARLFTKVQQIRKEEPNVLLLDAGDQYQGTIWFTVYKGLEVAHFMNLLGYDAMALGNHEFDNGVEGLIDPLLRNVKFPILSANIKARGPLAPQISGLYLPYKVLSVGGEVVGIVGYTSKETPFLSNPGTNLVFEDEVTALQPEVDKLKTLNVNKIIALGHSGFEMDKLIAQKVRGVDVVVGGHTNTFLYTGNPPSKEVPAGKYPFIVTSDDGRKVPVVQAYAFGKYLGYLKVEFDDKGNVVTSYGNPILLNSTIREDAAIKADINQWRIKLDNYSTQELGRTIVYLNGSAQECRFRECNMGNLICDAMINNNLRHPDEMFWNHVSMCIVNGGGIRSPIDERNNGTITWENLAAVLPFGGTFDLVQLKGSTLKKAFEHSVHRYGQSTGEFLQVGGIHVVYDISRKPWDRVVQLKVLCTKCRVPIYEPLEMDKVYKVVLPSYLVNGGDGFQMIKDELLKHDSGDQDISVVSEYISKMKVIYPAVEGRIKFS
Briefly: Radiometric rat ecto-5′-nucleotidase (CD73) assay with [3H]AMP. To be noted: for % inhibition at indicated concentration, rat CD73: initial screening concentration 1 μM.
Protocol: After the enzymatic reaction, the substrate was separated from its product [2,8-^3H]adenosine by precipitation with lanthanum chloride followed by filtration through glass fiber filters (34). […] Ki values were calculated from the obtained IC50 values using the Cheng-Prusoff equation (6,7).
The assay was performed as previously described (41) using recombinant rat CD73 expressed in Sf9 insect cells (33). […] The mixture was incubated for 25 min at 37° C. The reaction was stopped by adding 500 μL of ice-cooled precipitation buffer containing 100 mM aqueous lanthanum chloride and 100 mM aqueous sodium acetate solution (pH 4.0). After 30 min, the precipitation was filtered through GF/B glass fiber filters (M-48, Brandel, Gaithersburg, Md., USA). After washing three times, 4 mL of the scintillation cocktail ULTIMA Gold XR was added and then quantified by scintillation counting (TRICARB 2900 TR, Packard/PerkinElmer). Three separate inhibition assays were performed in triplicate, concentration-response curves were fitted, and Ki values were calculated.
The assay was performed essentially as previously described.^D Stock solutions (10 mM) of the compounds were prepared in demineralized water and further dilutions were performed in assay reaction buffer (25 mM Tris, 140 mM sodium chloride, 25 mM sodium dihydrogen phosphate, pH 7.4). 10 μL of the inhibitor solution were added to 70 μL of assay reaction buffer. […] The enzymatic reaction was performed for 25 min at 37° C. in a shaking water bath. […] After the precipitation was completed (after at least 30 min on ice), the mixture was separated by filtration through GF/B glass fiber filters using a cell harvester (M-48, Brandel, Gaitherburg, Md., USA). After washing each reaction vial three times with 400 μl of cold (4° C.) demineralized water, 5 ml of the scintillation cocktail (ULTIMA Gold XR, PerkinElmer, MA, USA) was added and radioactivity was measured by scintillation counting (TRICARB 2900 TR, Packard/PerkinElmer; counting efficacy: 49-52%). Two controls were included and measured as duplicates. One reaction was performed without the inhibitor resulting in 100% enzyme activity (positive control) and one was incubated without the inhibitor and the enzyme and served as background control. The resulting data were subtracted from the background and were normalized with to the positive control. The results were plotted, and concentration-inhibition curves were fitted with GraphPad Prism 5 (GraphPad Software, La Jolla, USA).
After 30 min, the precipitation was filtered through GF/B glass fiber filters (M-48, Brandel, Gaithersburg, Md., USA). After washing three times, 4 mL of the scintillation cocktail ULTIMA Gold XR was added and then quantified by scintillation counting (TRICARB 2900 TR, Packard/PerkinElmer). Three separate inhibition assays were performed in triplicate, concentration-response curves were fitted, and K, values were calculated.

A short description of data set [4]: Stability in aqueous solution. To be noted: decomposes to UOPCP (4a). The data set is classed as physicochemical. On the procedure: Cytidine derivatives varying at the 2′-position (7a and 7b), as well as at the 5-position (7c-e), were prepared as depicted in Scheme 2. […] The required nucleosides were prepared by either reacting cytidine (6a), 2′-deoxycytidine (6b), 5-fluorocytidine (6d) or 5-methylcytidine (6e) with respective alkoxyamino derivatives in pyridine^8 followed by phosphonylation reaction to afford compounds 9a-f, or by reacting cytidine (6a) with benzyloxyamine, followed by nucleophilic substitution at the 3-position and subsequent 5′-O-phosphonylation of the nucleosides to afford compounds 9h and 9i (Scheme 2). Furthermore, 3-deazauridine-5′-α,β-methylene-diphosphate (10), (S)-methanocarba-5′-α,β-methylene-diphosphate (11) and the ethyl ester of 2-thio-UDP (12) (7) were prepared to extend the exploration of SARs of the nucleotide analogs as CD73 inhibitors. All phosphonate-substituted nucleotides were purified to homogeneity by ion exchange chromatography followed by reverse phase C18 HPLC.

Where [5] appears, read: read-out: Ki ± SEM (nM), rat CD73, Table 3, recombinant soluble rat CD73, 5 μM [3H]AMP.

Structures can show the parent of a compound that is named as a salt. Where two headings read alike, the source gives them in different places.

`O=c1[nH]c(=NOCc2ccccc2)c(F)cn1C1OC(COP(=O)(O)CP(=O)(O)O)C(O)C1O` (stereo not shown) [Compound 9g, N^4-[O-(4-Benzyloxy)]-5-fluoro-cytidine-5′-O-[(phosphonomethyl)phosphonic acid]]: the “potency at human CD73 as compared to the rat enzyme” value in data set [1] is on record as 5 fold.

Take “(((((2R,3S,4R,5S)-4-((Z)-4-(((4-Chlorobenzyl)oxy)imino)-3-methyl-2-oxo-3,4-dihydropyrimidin-1(2H)-yl)-2,3-dihydroxy-1V-bicyclo[3.1.0]hexan-1-yl)methoxy)(hydroxy)phosphoryl)methyl)phosphonic Acid Triethylammonium Salt [Compound 122]”: in data set [2], the Ki (usually the equilibrium dissociation constant of an inhibitor or competing ligand from its target) was 59.2 ± 5.58 nM.

For the compound `CCN(CC)CC.CCN(CC)CC.O=c1ccn([C@H]2[C@H](O)[C@H](O)C3(COP(=O)(O)CP(=O)(O)O)C[C@H]23)c(=O)[nH]1` (stereo partly drawn) [Compound 121, (((((2R,3S,4R,5S)-4-(2,4-Dioxo-3,4-dihydropyrimidin-1(2H)-yl)-2,3-dihydroxy-1λ^5-bicyclo[3.1.0]hexan-1-yl)methoxy)(hydroxy)phosphoryl)methyl)phosphonic Acid Triethylammonium Salt], the “inhibition of hCD73” value in data set [2] (at 50 μM) was 35% inhibition.

As for `Nc1ccnc2c1ncn2[C@@H]1O[C@H](COP(=O)(O)CP(=O)(O)O)[C@@H](O)[C@H]1O` [Compound 2e, 1-Deazaadenosine-5′-O-[(phosphonomethyl)phosphonic acid]], in data set [3] (Table 3), the % inhibition (in general, the relative decrease from the control value, in per cent) at indicated concentration, rat CD73 came out at 36%. For the same compound, in data set [3] (setting [5]), the Ki is more than 1000 nM.

Take `Nc1ncnc2c1ncn2[C@@H]1O[C@H](COP(=O)(O)CP(=O)(O)O)[C@@H](O)[C@H]1O` [I, reference compound]: the Ki in data set [3] (setting [5]) came to 167 ± 53 nM.

`Nc1nccc2c1ncn2[C@@H]1O[C@H](COP(=O)(O)CP(=O)(O)O)[C@@H](O)[C@H]1O` [Compound 2f, 3-Deazaadenosine-5′-O-[(phosphonomethyl)phosphonic acid]]: in data set [3] (Table 3), the “% inhibition at indicated concentration, rat CD73” value stood at 36%. Also, the Ki in data set [3] (setting [5]) is more than 1000 nM.

With `O=C(Nc1ccn([C@@H]2O[C@H](COP(=O)(O)CP(=O)(O)O)C(O)C2O)c(=O)n1)c1ccccc1` (stereo partly shown) [Compound 7f, 4-Benzoylcytidine-5′-O-[(phosphonomethyl)phosphonic acid]], the “decomposition in aqueous solution” value in data set [4] is “rapid decomposition”; in data set [4] (listed as 71), “decomposition in aqueous solution”.

With `CCn1c(=O)n([C@@H]2O[C@H](COP(=O)(O)CP(=O)(O)O)[C@@H](O)[C@H]2O)cc/c1=N/OCc1ccccc1` [Compound 9i, N^4-[O-(4-Benzyloxy)]-3-ethyl-cytidine-5′-O-[(phosphonomethyl)phosphonic acid]], in data set [3], the inhibitory constant (Ki) came to 262 ± 46 nM.

For the compound `Nc1ncnc2c1ccn2[C@@H]1O[C@H](COP(=O)(O)CP(=O)(O)O)[C@@H](O)[C@H]1O` [Compound 2g, 7-Deazaadenosine-5′-O-[(phosphonomethyl)phosphonic acid]], the Ki in data set [3] (setting [5]) is 88.6 ± 4 nM.

For the compound `Cn1c(=O)n([C@@H]2O[C@H](COP(=O)(O)CP(=O)(O)O)[C@@H](O)[C@H]2O)cc/c1=N/OCc1cccc(Cl)c1` [Compound 106, N^4-(3-Chlorobenzyloxy)-3-methylcytidine-5′-α,β-methylenediphosphate triethylammonium salt], the Ki in data set [2] is 1.61 ± 0.09 nM.

With `Cn1c(=O)n([C@@H]2O[C@H](COP(=O)(O)CP(=O)(O)O)[C@@H](O)[C@H]2O)cc/c1=N/OCc1cccc(C(F)(F)F)c1` [Compound 107, N^4-((3-Trifluoromethyl)benzyloxy)-3-methyleytidine-5′-α,β-methylenediphosphate triethylammonium salt], the inhibitory constant (Ki) in data set [2] came to 1.44 ± 0.09 nM.

With `Cn1c(=O)n([C@@H]2O[C@H](COP(=O)(O)CP(=O)(O)O)[C@@H](O)[C@H]2O)cc/c1=N/OCc1ccc(-c2cn(CCF)nn2)cc1` [Compound 120, N^4-(4-(1-(2-Fluoroethyl)-1H-1,2,3-triazol-4-yl)benzyloxy)-3-methylcytidine-5′-α,β-methylenediphosphate triethylammonium salt], the Ki in data set [2] is 0.627 ± 0.099 nM.

As for `C#Cc1ccc(CO/N=c2/ccn([C@@H]3O[C@H](COP(=O)(O)CP(=O)(O)O)[C@@H](O)[C@H]3O)c(=O)n2C)cc1` [Compound 114, N^4-(4-Ethynylbenzyloxy)-3-methyleytidine-5′-α,β-methylenediphosphate triethylammonium salt], the Ki in data set [2] is 0.664 ± 0.089 nM.

Values taken from patent US20210169911A1, “PURINE AND PYRIMIDINE NUCLEOTIDES AS ECTO-5'-NUCLEOTIDASE INHIBITORS” (The United States of America,as represented by the …, priority 2018, published 2021).
